# Laboratory results taken from patent publication US20240425808A1, “A METHOD FOR RAPID GENERATION OF 3D ORGANOTYPIC CELL CLUSTERS” (THE TRUSTEES OF INDIANA UNIVERSITY, priority 2022, published 2024).
# Experiments:
# Assay type in all cases: cell-based, human
# [1] = system: IFN-γ; test: ELISA analysis of IFN-γ in APCC culture supernatants; conditions: n=3
# Description: (§1) The levels of TNF-α and IFN-γ were elevated in the APCCs treated with anti-PD1. […] (FIG. 4B).
# (§2) Cabozantinib (SelleckChem) was added at 10 μM to the APCCs.
# (§3) To perform cytokine analysis on the APCCs and 2D tumor cultures, 50 μL supernatants were pipetted out of the culture vessel and centrifuged at 10,000 g for 10 minutes to remove cell debris. The supernatants were then analyzed by human TNF-α or IFN-γ kits (Tribioscience).
# [2] = system: IFN-γ gene expression in CD4/CD8+ T cells; test: qRT-PCR of IFN-γ expression in CD4/CD8+ T cells isolated from APCCs; conditions: n=3
# Description: as §2
# (§4) For qRT-PCR analysis of the CD15+ cells and CD4/8+ T cells, CD15+ cells or CD4/8+ T cells were pre-labeled by CD15 or CD4-and-CD8 (1:1) magnetic beads for 15 minutes at 4° C. respectively before mixed with other tumor cells for acoustic assembly. The CD15+ cells or CD4/8+ T cells with the labeling beads were then assembled into APCCs. To analyze their gene expression profiles, the APCCs were digested by with cell recovery solution (Corning), and input onto MACS columns (Miltenyi) for positive magnetic separation to isolate pure CD15+ cells or T cells (CD4+ or CD8+). The purified CD15+ cells or CD4/8+ T cells were then lysed for RNA extraction by RNeasy Mini Kit (Qiagen), reverse transcribed to cDNA by High-Capacity cDNA Reverse Transcription Kit (Applied Biosystems), and analyzed using corresponding primer pairs (Table 2) and SYBR Green PCR Master Mix (Applied Biosystems). The samples were run on a StepOne Real Time PCR machine (Applied Biosystems) to quantify signals. The results were analyzed using AACt method for fold change analysis.
# [3] = system: TNF-α; test: ELISA analysis of TNF-α in APCC culture supernatants; conditions: n=3
# Description: as §1, §2, §3
# [4] = system: TNF-α gene expression in CD4/CD8+ T cells; test: qRT-PCR of TNF-α expression in CD4/CD8+ T cells isolated from APCCs; conditions: n=3
# Description: as §2, §4
# [5] = system: tumor cells within RCC derived APCCs; test: Tumor cell death within APCCs by time-lapse imaging; conditions: 24-hour time lapse, anti-PD1 5 μg/mL
# Description: To evaluate the preservation of MDSC viability inside APCCs, initial tests were performed with renal cell carcinoma (RCC) primary tumors from patients. For MDSC study, the CD15+ cells were first isolated from dissociated patient tumor cells via magnetic microbeads, which consist of tumor infiltrating neutrophils including immunosuppressive polymorphonuclear myeloid derived suppressor cells (PMN-MDSCs). The CD15+ cells were pre-labelled with DiL membrane dyes (shown as yellow). T cells were isolated via a 1:1 mixture of CD4 and CD8 microbeads and pre-labeled the T cells with DiO membrane dyes. The CD15+, CD4+, CD8+ depleted dissociated tumor cells were labeled with the blue CMAC cell tracker dye. Membrane impermeable cell nucleus staining NucRed dead 647 was added to indicate cell death. The cell death of the CD15+ cells was calculated by analyzing co-localization of Dil labeled MDSCs and NucRed cell death indicator dye over time-lapse imaging (FIG. 2A).
# MDSC-targeting drugs alone and/or in combination with ICIs. […] The tumor cell death over a 24-hour time lapse was observed. […]
# Digested tumor cells were equally divided into 3 tubes. […] Before acoustic assembly, 1 drop of NucRed Dead 647 ReadyProbes (Invitrogen) was added to 1 milliter of cell suspensions and left in medium to visualize cell death over time. […]
# [6] = APCCs without CD15+ cells, 24 hours post-treatment
# [7] = T cells isolated from APCCs 24 hours post-treatment
substance,measurement,setting,value
Pembrolizumab [anti-PD1],"IFN-γ level in culture supernatant, APCCs without CD15+ cells",[1]; APCCs without CD15+ cells,further elevated
same,IFN-γ level in culture supernatant,"[1]; RCC APCCs, vs control",elevated
same,"IFN-γ gene expression in CD4/CD8+ T cells, APCCs without CD15+ cells",[2]; [6],highest
same,IFN-γ gene expression in CD4/CD8+ T cells,[2]; [7],enhanced
same,"TNF-α level in culture supernatant, APCCs without CD15+ cells",[3]; APCCs without CD15+ cells,further elevated
same,TNF-α level in culture supernatant,"[3]; RCC APCCs, vs control",elevated
same,"TNF-α gene expression in CD4/CD8+ T cells, APCCs without CD15+ cells",[4]; [6],highest
same,TNF-α gene expression in CD4/CD8+ T cells,[4]; [7],enhanced
same,increase in tumor cell death as compared to untreated control,"[5]; APCCs from 3 RCC patient primary tumors, Cabozantinib 10 μM",about 17.0%±9.4%
same,"increase in tumor cell death as compared to untreated control, APCCs without CD15+ cells",[5]; APCCs without CD15+ cells (MDSCs removal),about 40.9%±9.4%
